{"source": "patent US5843954A", "about": "“Camptothecin derivatives, preparations thereof and antitumor agents” (priority 1994, dated 1998)"}
{"tested_on": "not listed separately", "test": "Water solubility", "format": "physicochemical", "details": "not given", "units": {"solubility": "mg/mL"}}
{"smiles": "CCc1c2c(nc3cc(F)c(F)cc13)-c1cc([C@@](O)(CC)C(=O)NCCN(C)C)c(COC(=O)CCSC)c(=O)n1C2", "note": "[Compound C15]", "solubility": "> 64"}
{"smiles": "CCC(=O)OCc1c([C@@](O)(CC)C(=O)NCCN(C)C)cc2n(c1=O)Cc1c-2nc2ccc(O)cc2c1CC", "note": "[Compound C28]", "solubility": "> 56"}
{"smiles": "CCc1c2c(nc3ccc(O)cc13)-c1cc([C@@](O)(CC)C(=O)NCCN(C)C)c(COC(=O)c3ccc(F)cc3)c(=O)n1C2", "note": "[Compound C36]", "solubility": 17}
{"smiles": "CC=CC(=O)OCc1c([C@@](O)(CC)C(=O)NCCN(C)C)cc2n(c1=O)Cc1c-2nc2ccc(O)cc2c1CC", "note": "[Compound C34]", "solubility": "> 59"}
{"smiles": "CCc1c2c(nc3cc(F)c(OC)cc13)-c1cc([C@@](O)(CC)C(=O)NCCN(C)C)c(COC(=O)CCSC)c(=O)n1C2", "note": "[Compound C22]", "solubility": "> 65"}
{"tested_on": "not listed separately", "test": "Antitumor activity for L1210 (life prolonging effect, mouse leukemia transplanted intraperitoneally)", "format": "in vivo", "details": "mouse, in vivo, ip; numerator of therapeutic index; i.p. total dose; read-out: Maximum tolerable dose", "description": "(§1) 5×10^5 cells of mouse leukemia L1210 were transplanted intraperitoneally to a group of six female CDF1 mice (7 weeks old, body weight 17-19 g). The test compound was administered intraperitoneally on day 1, 5 and 9 and its life prolonging effect was observed.\n(§2) In a case of the administration of a test compound as an acid addition salt the test compound was dissolved in water. The total administration amount was 1.56 mg/kg-400 mg/kg. The antitumor activity was expressed by the value (T/C%) wherein T denotes the mean survival days in the drug administered group and C denotes those in the non administered group. In case of equal to or more than 125% the drug is considered to be effective.", "units": {"MTD": "mg/kg"}}
{"smiles": "CCc1c2c(nc3ccc(C)cc13)-c1cc([C@@](O)(CC)C(=O)NCCN(C)C)c(COC(=O)c3ccncc3)c(=O)n1C2", "note": "[Compound C39]", "MTD": 50}
{"smiles": "CCc1c2c(nc3ccc(OC(C)=O)cc13)-c1cc([C@@](O)(CC)C(=O)NCCN(C)C)c(COC(=O)c3ccc(F)cc3)c(=O)n1C2", "note": "[Compound C48]", "MTD": 200}
{"smiles": "CCC(=O)OCc1c([C@@](O)(CC)C(=O)NCCN(C)C)cc2n(c1=O)Cc1c-2nc2ccc(O)cc2c1CC", "note": "[Compound C28]", "MTD": 200}
{"smiles": "CCc1c2c(nc3ccc(O)cc13)-c1cc([C@@](O)(CC)C(=O)NCCN(C)C)c(COC(=O)c3ccc(F)cc3)c(=O)n1C2", "note": "[Compound C36]", "MTD": 200}
{"tested_on": "mouse leukemia L1210", "test": "Antitumor activity for L1210 (life prolonging effect, mouse leukemia transplanted intraperitoneally)", "format": "in vivo", "details": "Mus musculus, L1210, ip; denominator of therapeutic index; i.p. total dose; read-out: Minimum effective dose", "description": "as §1, §2", "units": {"minimal effective dose": "mg/kg"}}
{"smiles": "CCc1c2c(nc3ccc(C)cc13)-c1cc([C@@](O)(CC)C(=O)NCCN(C)C)c(COC(=O)c3ccncc3)c(=O)n1C2", "note": "[Compound C39]", "minimal effective dose": 3.13}
{"smiles": "CCc1c2c(nc3ccc(OC(C)=O)cc13)-c1cc([C@@](O)(CC)C(=O)NCCN(C)C)c(COC(=O)c3ccc(F)cc3)c(=O)n1C2", "note": "[Compound C48]", "minimal effective dose": 25}
{"smiles": "CCC(=O)OCc1c([C@@](O)(CC)C(=O)NCCN(C)C)cc2n(c1=O)Cc1c-2nc2ccc(O)cc2c1CC", "note": "[Compound C28]", "minimal effective dose": 12.5}
{"smiles": "CCc1c2c(nc3ccc(O)cc13)-c1cc([C@@](O)(CC)C(=O)NCCN(C)C)c(COC(=O)c3ccc(F)cc3)c(=O)n1C2", "note": "[Compound C36]", "minimal effective dose": 12.5}
{"tested_on": "mouse leukemia L1210", "test": "Antitumor activity for L1210 (life prolonging effect, mouse leukemia transplanted intraperitoneally)", "format": "in vivo", "details": "at optimum dose; group of six female CDF1 mice", "description": "as §1, §2"}
{"smiles": "CCc1c2c(nc3ccc(C)cc13)-c1cc([C@@](O)(CC)C(=O)NCCN(C)C)c(COC(=O)c3ccncc3)c(=O)n1C2", "note": "[Compound C39]", "40-day survivors": "3/6"}
{"smiles": "CCc1c2c(nc3ccc(OC(C)=O)cc13)-c1cc([C@@](O)(CC)C(=O)NCCN(C)C)c(COC(=O)c3ccc(F)cc3)c(=O)n1C2", "note": "[Compound C48]", "40-day survivors": "0/6"}
{"smiles": "CCc1c2c(nc3cc(F)c(F)cc13)-c1cc([C@@](O)(CC)C(=O)NCCN(C)C)c(COC(=O)CCSC)c(=O)n1C2", "note": "[Compound C15]", "40-day survivors": "0/6"}
{"smiles": "CCC(=O)OCc1c([C@@](O)(CC)C(=O)NCCN(C)C)cc2n(c1=O)Cc1c-2nc2ccc(O)cc2c1CC", "note": "[Compound C28]", "40-day survivors": "0/6"}
{"smiles": "CCc1c2c(nc3ccc(O)cc13)-c1cc([C@@](O)(CC)C(=O)NCCN(C)C)c(COC(=O)c3ccc(F)cc3)c(=O)n1C2", "note": "[Compound C36]", "40-day survivors": "0/6"}
{"smiles": "CCc1c2c(nc3cc(F)c(OC)cc13)-c1cc([C@@](O)(CC)C(=O)NCCN(C)C)c(COC(=O)CCSC)c(=O)n1C2", "note": "[Compound C22]", "40-day survivors": "0/6"}
{"tested_on": "mouse leukemia L1210", "test": "Antitumor activity for L1210 (life prolonging effect, mouse leukemia transplanted intraperitoneally)", "format": "in vivo", "details": "i.p., L1210, CDF1 mice", "description": "as §1, §2"}
{"smiles": "CCc1c2c(nc3ccc(C)cc13)-c1cc([C@@](O)(CC)C(=O)NCCN(C)C)c(COC(=O)c3ccncc3)c(=O)n1C2", "note": "[Compound C39]", "Therapeutic Index (Maximum tolerable dose/Minimum effective dose)": 16}
{"smiles": "CCc1c2c(nc3ccc(OC(C)=O)cc13)-c1cc([C@@](O)(CC)C(=O)NCCN(C)C)c(COC(=O)c3ccc(F)cc3)c(=O)n1C2", "note": "[Compound C48]", "Therapeutic Index (Maximum tolerable dose/Minimum effective dose)": 8}
{"smiles": "CCC(=O)OCc1c([C@@](O)(CC)C(=O)NCCN(C)C)cc2n(c1=O)Cc1c-2nc2ccc(O)cc2c1CC", "note": "[Compound C28]", "Therapeutic Index (Maximum tolerable dose/Minimum effective dose)": 16}
{"smiles": "CCc1c2c(nc3ccc(O)cc13)-c1cc([C@@](O)(CC)C(=O)NCCN(C)C)c(COC(=O)c3ccc(F)cc3)c(=O)n1C2", "note": "[Compound C36]", "Therapeutic Index (Maximum tolerable dose/Minimum effective dose)": 16}
{"tested_on": "not listed separately", "test": "Acute toxicity test by intraperitoneal administration", "details": "mouse, in vivo, ip, ICR male mice, 1 week observation", "description": "Acute toxicity test was conducted by intraperitoneal administration using a group of twenty ICR male mice (4 weeks old, body weight around 20 g).\nLD50 value was calculated by the Richfield-Willcokson method from a lethal ratio observing the fate of mice during 1 week after administration of a test compound.", "units": {"LD50 at 168 h": "mg/kg"}}
{"smiles": "CCc1c2c(nc3ccc(C)cc13)-c1cc([C@@](O)(CC)C(=O)NCCN(C)C)c(COC(=O)c3ccncc3)c(=O)n1C2", "note": "[Compound C39]", "LD50 at 168 h": 320}
{"smiles": "CCc1c2c(nc3ccc(OC(C)=O)cc13)-c1cc([C@@](O)(CC)C(=O)NCCN(C)C)c(COC(=O)c3ccc(F)cc3)c(=O)n1C2", "note": "[Compound C48]", "LD50 at 168 h": 418}
{"smiles": "CCc1c2c(nc3cc(F)c(F)cc13)-c1cc([C@@](O)(CC)C(=O)NCCN(C)C)c(COC(=O)CCSC)c(=O)n1C2", "note": "[Compound C15]", "LD50 at 168 h": 85.2}
{"smiles": "CCC(=O)OCc1c([C@@](O)(CC)C(=O)NCCN(C)C)cc2n(c1=O)Cc1c-2nc2ccc(O)cc2c1CC", "note": "[Compound C28]", "LD50 at 168 h": 341}
{"smiles": "CCc1c2c(nc3ccc(O)cc13)-c1cc([C@@](O)(CC)C(=O)NCCN(C)C)c(COC(=O)c3ccc(F)cc3)c(=O)n1C2", "note": "[Compound C36]", "LD50 at 168 h": 477}
{"smiles": "CCc1c2c(nc3cc(F)c(OC)cc13)-c1cc([C@@](O)(CC)C(=O)NCCN(C)C)c(COC(=O)CCSC)c(=O)n1C2", "note": "[Compound C22]", "LD50 at 168 h": 68.6}
